Data published in paper PMC12040169 (PLOS Biology, 2025).
In brackets after ≈: the same amount, converted by molar mass.

Experiments:
[1] = tested on: T1, CTL2-GFP (C. trachomatis L2/434/Bu, GFP-expressing); test: microbe, parasite or virus in culture; parameters: species or system HeLa; C. trachomatis growth in HeLa, dose-response, mean of bulk GFP fluorescence and imaged total inclusion area; details: Chlamydia trachomatis, 28.5 h; mean of GFP and inclusion area
T1 construct: L2/434/Bu, GFP-expressing
Description: We screened a library of 36,785 small molecules displaying drug-like properties and covering a wide chemical space (Fig 1A and S2A Data). In this process, we also complemented the assay described above with an imaging-based readout (Fig 1B). After measurements of bulk GFP and resorufin fluorescence, cells were fixed, stained with the DNA dye Hoechst, and imaged at a high-content imaging platform to detect chlamydial inclusions (GFP) and host cell nuclei (Hoechst). The total area and number of inclusions in individual wells and the number of nuclei then served as additional proxies for chlamydial growth and host cell viability. […] MICs were calculated as described above.

in vitro = test: in vitro; parameters: Viability of infected HeLa host cells, resazurin conversion, bulk resorufin fluorescence relative to DMSO; details: human, hela cells; bulk resorufin, mean of 3
[2] = tested on: T1, CTL2-GFP (C. trachomatis L2/434/Bu, GFP-expressing); test: microbe, parasite or virus in culture; parameters: C. trachomatis growth in HeLa, dose-response, mean of bulk GFP fluorescence and imaged total inclusion area; details: Chlamydia trachomatis, HeLa, 28.5 h; mean of GFP and inclusion area
How it was run: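 First, bulk GFP and resorufin signals were measured in compound-treated infected cultures. Cells were next fixed and stained with Hoechst. Finally, high-content imaging quantified chlamydial inclusions (area, number) and host nuclei, and MICs were calculated.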

Compound: Cc1cccc(-c2ccc(CC3(C(N)=O)CCN(C(=O)CCc4ccccc4)CC3)cc2)c1 [c38e]
- MIC [1]: 8.43 µM (≈ 3.71 µg/mL)
- viability at 28.5 h, 0.000416667 µM (in vitro): 101%
- viability at 28.5 h, 0.00125 µM (in vitro): 97.3%
- viability at 28.5 h, 0.00375 µM (in vitro): 96.8%
- viability at 28.5 h, 0.0123333 µM (in vitro): 101%
- viability at 28.5 h, 0.037 µM (in vitro): 98.4%
- viability at 28.5 h, 0.111 µM (in vitro): 98.7%
- viability at 28.5 h, 0.333 µM (in vitro): 94.7%
- viability at 28.5 h, 1 µM (in vitro): 103%
- viability at 28.5 h, 3 µM (in vitro): 99.3%
- viability at 28.5 h, 10 µM (in vitro): 104%
- viability at 28.5 h, 30 µM (in vitro): 114%
- IC50 [2]: 4.84 µM

Compound: Cc1noc(-c2ccc3c(c2O)OCCO3)c1-c1ccc(Cl)cc1 [c20e]
- MIC [1]: 2.69 µM (≈ 0.926 µg/mL)
- viability at 28.5 h, 0.000416667 µM (in vitro): 99.7%
- viability at 28.5 h, 0.00125 µM (in vitro): 97%
- viability at 28.5 h, 0.00375 µM (in vitro): 93.1%
- viability at 28.5 h, 0.0123333 µM (in vitro): 91.8%
- viability at 28.5 h, 0.037 µM (in vitro): 94.3%
- viability at 28.5 h, 0.111 µM (in vitro): 86.5%
- viability at 28.5 h, 0.333 µM (in vitro): 88.7%
- viability at 28.5 h, 1 µM (in vitro): 86.1%
- viability at 28.5 h, 3 µM (in vitro): 83.4%
- viability at 28.5 h, 10 µM (in vitro): 85.9%
- viability at 28.5 h, 30 µM (in vitro): 75.6%
- IC50 [2]: 1.39 µM

Compound: O=C(Nc1ccccc1N1CCCNCC1)c1ccc2ccccc2c1 [c29e]
- MIC [1]: 5.56 µM (≈ 1.92 µg/mL)
- viability at 28.5 h, 0.000416667 µM (in vitro): 108%
- viability at 28.5 h, 0.00125 µM (in vitro): 107%
- viability at 28.5 h, 0.00375 µM (in vitro): 108%
- viability at 28.5 h, 0.0123333 µM (in vitro): 107%
- viability at 28.5 h, 0.037 µM (in vitro): 109%
- viability at 28.5 h, 0.111 µM (in vitro): 116%
- viability at 28.5 h, 0.333 µM (in vitro): 114%
- viability at 28.5 h, 1 µM (in vitro): 115%
- viability at 28.5 h, 3 µM (in vitro): 111%
- viability at 28.5 h, 10 µM (in vitro): 116%
- viability at 28.5 h, 30 µM (in vitro): 112%
- IC50 [2]: 2.87 µM

Compound: COCCNc1nc2c(c(N3CCCCCC3)n1)CCNCC2 [c18e]
- MIC [1]: 1.94 µM (≈ 0.619 µg/mL)
- viability at 28.5 h, 0.000416667 µM (in vitro): 113%
- viability at 28.5 h, 0.00125 µM (in vitro): 109%
- viability at 28.5 h, 0.00375 µM (in vitro): 109%
- viability at 28.5 h, 0.0123333 µM (in vitro): 108%
- viability at 28.5 h, 0.037 µM (in vitro): 110%
- viability at 28.5 h, 0.111 µM (in vitro): 106%
- viability at 28.5 h, 0.333 µM (in vitro): 107%
- viability at 28.5 h, 1 µM (in vitro): 102%
- viability at 28.5 h, 3 µM (in vitro): 108%
- viability at 28.5 h, 10 µM (in vitro): 101%
- viability at 28.5 h, 30 µM (in vitro): 103%
- IC50 [2]: 1.27 µM

Compound: COc1ccc(CC(=O)N2CCCC(c3nc(C)c4c(n3)N(CC3CC3)CCC4)C2)cc1 (stereo not drawn) [c52e]
- MIC [1]: 9.34 µM (≈ 4.06 µg/mL)
- viability at 28.5 h, 0.000416667 µM (in vitro): 85.5%
- viability at 28.5 h, 0.00125 µM (in vitro): 91.1%
- viability at 28.5 h, 0.00375 µM (in vitro): 88.5%
- viability at 28.5 h, 0.0123333 µM (in vitro): 92.2%
- viability at 28.5 h, 0.037 µM (in vitro): 88.5%
- viability at 28.5 h, 0.111 µM (in vitro): 91.4%
- viability at 28.5 h, 0.333 µM (in vitro): 88.5%
- viability at 28.5 h, 1 µM (in vitro): 96.8%
- viability at 28.5 h, 3 µM (in vitro): 90.3%
- viability at 28.5 h, 10 µM (in vitro): 95.6%
- viability at 28.5 h, 30 µM (in vitro): 102%
- IC50 [2]: 8.46 µM

Compound: C1=C(CCNCCc2ccccc2)c2ccccc2C12CCCC2 [c51e]
- MIC [1]: 9.36 µM (≈ 2.97 µg/mL)
- viability at 28.5 h, 0.000416667 µM (in vitro): 99.8%
- viability at 28.5 h, 0.00125 µM (in vitro): 96.2%
- viability at 28.5 h, 0.00375 µM (in vitro): 101%
- viability at 28.5 h, 0.0123333 µM (in vitro): 98.1%
- viability at 28.5 h, 0.037 µM (in vitro): 101%
- viability at 28.5 h, 0.111 µM (in vitro): 97.8%
- viability at 28.5 h, 0.333 µM (in vitro): 99.6%
- viability at 28.5 h, 1 µM (in vitro): 102%
- viability at 28.5 h, 3 µM (in vitro): 100%
- viability at 28.5 h, 10 µM (in vitro): 106%
- viability at 28.5 h, 30 µM (in vitro): 96.5%
- IC50 [2]: 8.3 µM

Compound: O=C(NCCCn1ccnc1)c1cc(-c2cccc(Br)c2)nc2ccccc12 [c50e]
- MIC [1]: 9.27 µM (≈ 4.03 µg/mL)
- viability at 28.5 h, 0.000416667 µM (in vitro): 90.5%
- viability at 28.5 h, 0.00125 µM (in vitro): 90.8%
- viability at 28.5 h, 0.00375 µM (in vitro): 90.1%
- viability at 28.5 h, 0.0123333 µM (in vitro): 87.8%
- viability at 28.5 h, 0.037 µM (in vitro): 86.1%
- viability at 28.5 h, 0.111 µM (in vitro): 90.6%
- viability at 28.5 h, 0.333 µM (in vitro): 85.4%
- viability at 28.5 h, 1 µM (in vitro): 89.1%
- viability at 28.5 h, 3 µM (in vitro): 86.3%
- viability at 28.5 h, 10 µM (in vitro): 90%
- viability at 28.5 h, 30 µM (in vitro): 84.8%
- IC50 [2]: 7.95 µM

Compound: Fc1cccc(F)c1OCCOc1nc(N2CCNCC2)ccc1C(F)(F)F [c21e]
- MIC [1]: 8.28 µM (≈ 3.34 µg/mL)
- viability at 28.5 h, 0.000416667 µM (in vitro): 85.4%
- viability at 28.5 h, 0.00125 µM (in vitro): 87.7%
- viability at 28.5 h, 0.00375 µM (in vitro): 84%
- viability at 28.5 h, 0.0123333 µM (in vitro): 87.6%
- viability at 28.5 h, 0.037 µM (in vitro): 84.7%
- viability at 28.5 h, 0.111 µM (in vitro): 89.9%
- viability at 28.5 h, 0.333 µM (in vitro): 90.4%
- viability at 28.5 h, 1 µM (in vitro): 93.9%
- viability at 28.5 h, 3 µM (in vitro): 87.9%
- viability at 28.5 h, 10 µM (in vitro): 91.3%
- viability at 28.5 h, 30 µM (in vitro): 0%
- IC50 [2]: 1.7 µM

Compound: CC1=C(C)C(=NNC(N)=S)C(C)=C(C)C1=NNC(N)=S [c19e]
- MIC [1]: 3.58 µM (≈ 1.11 µg/mL)
- viability at 28.5 h, 0.000416667 µM (in vitro): 101%
- viability at 28.5 h, 0.00125 µM (in vitro): 103%
- viability at 28.5 h, 0.00375 µM (in vitro): 109%
- viability at 28.5 h, 0.0123333 µM (in vitro): 101%
- viability at 28.5 h, 0.037 µM (in vitro): 101%
- viability at 28.5 h, 0.111 µM (in vitro): 107%
- viability at 28.5 h, 0.333 µM (in vitro): 104%
- viability at 28.5 h, 1 µM (in vitro): 103%
- viability at 28.5 h, 3 µM (in vitro): 107%
- viability at 28.5 h, 10 µM (in vitro): 109%
- viability at 28.5 h, 30 µM (in vitro): 114%
- IC50 [2]: 1.39 µM
